Measured values published in patent US11317626B2, “Forchlorfenuron mixtures and uses thereof” (Valent BioSciences LLC, priority 2018, dated 2022).

What was measured:
Format in all cases: in vivo
Concord grape vines [1] = experiment: Example 2: Concord grape vines greenhouse, forchlorfenuron and 15-0-0 fertilizer (Erger) study
Text: (§1) To assess the ability of mixtures of the invention to promote and synchronize bud break these mixtures were applied to Concord grape vines and examined for bud break (initiation of growth) and subsequent shoot development. Specifically, dormant bare-rooted Concord grape vines were planted in pots containing Pro-Mix® BX potting soil (Pro-Mix is a registered trademark of and available from Premier Horticulture Ltd.) and pruned to five nodes on a single shoot of one-year-old wood. Nodes are regions on the shoot where leaves arise from the shoot and buds are present at the axis of the shoot:leaf interface. The bud found at the shoot:leaf interface develops into the vines new shoot growth. Aqueous solutions of forchlorfenuron, HC, 15-0-0 fertilizer, 17-0-0 fertilizer, and mixtures thereof were each applied individually or sequentially or co-applied to the first-year wood of separate Concord grape vines. […] Percent bud break is determined by the number of plants that have at least one bud broken divided by the total number of plants per treatment times 100. […] New shoot growth is the growth arising from the dormant buds not including the woody growth that was planted and gave rise to the new growth.
(§2) To determine if the mixtures provided unexpected results, the observed combined efficacy (“OCE”) was divided by the expected combined efficacy (“ECE”) wherein the expected ECE is calculated by the Abbott method: ECE=A+B−(AB/100), • wherein ECE is the expected combined efficacy and in which A and B are the speed of bud break relative to control, the number of buds broken per plant relative to control, shoot length relative to control or shoot weight relative to control given by the single active ingredients. If the ratio between the OCE of the mixture and the ECE of the mixture is greater than 1, then greater than expected interactions are present in the mixture. (Gisi, Synergistic Interaction of Fungicides in Mixtures, The American Phytopathological Society, 86:11, 1273-1279,1996). Results
(§3) The experiment from Example 1 was repeated with varying quantities of forchlorfenuron and fertilizers in a greenhouse experiment.

[2] = tested on: Prunus (stone fruit) plants; experiment: Example 5: bud break and shoot growth of Prunus (stone fruit) plants in greenhouse
Procedure: as §2
(§4) To assess the ability of mixtures of the invention to promote and synchronize bud break, these mixtures were applied to Prunus (stone fruit) plants in the greenhouse and examined for bud break (initiation of growth) and subsequent shoot development. Forchlorfenuron, Dormex (50% HC), 15-0-0 (Erger®) and 17-0-0 fertilizers (CAN17), and mixtures thereof were each applied individually or sequentially (co-applied) to the shoots of Prunus plants. Plants were evaluated for bud break at 28 days after treatment.

Malus (apple) rootstocks = experiment: Example 4: bud break and shoot growth of Malus (apple) rootstocks
Procedure: as §2
as §4, with “field-grown Malus (apple) rootstocks” for “Prunus (stone fruit) plants in the greenhouse”, “potted Malus rootstocks that were pruned to a height of 25 centimeters.” for “Prunus plants.”

Concord grape vines [3] = experiment: Example 1: bud break and shoot growth of potted Concord grape vines in greenhouse; details: for 0-50% BB: days from bud break on the first plant to 50% of the plants with bud break, synchrony
Text: An aqueous 50% hydrogen cyanamide solution (Sigma-Aldrich, St. Louis, Mo. USA) was used as the source of hydrogen cyanamide (“HC”). The commercial product, Dormex® contains 50% hydrogen cyanamide (w/v) in an aqueous base.
Erger® was used as the source of 15-0-0 fertilizer. Erger® contains 15% total nitrogen as 3.1% ammoniacal nitrogen, 5.8% nitrate nitrogen, 6.1% urea nitrogen and 3.3% calcium derived from a mixture of ammonium nitrate, calcium nitrate and urea. Erger® is always used in combination with either 20% (w/v) Ca(NO3)2 or Activ Erger®. In the following examples, 15-0-0 fertilizer was applied at a rate of 208,340 ppm calcium nitrate, 15,060 ppm nitrogen nitrate and 15,660 ppm urea or 239,060 ppm total.
CAN-17 was used as the 17-0-0 fertilizer. CAN-17 contains 17% total nitrogen as 4.6% ammonium nitrogen and 11.6% nitrate nitrogen and 1.3% urea nitrogen and 8.8% calcium derived from ammonium nitrate and calcium nitrate. CAN-17 is available from J. R. Simplot Company (Boise, Id., USA). In the following examples, 17-0-0 fertilizer was applied at a rate of 118,200 ppm calcium nitrate and 78,900 ppm nitrogen nitrate or 197,100 ppm total. See, Table 1 below, for ratios of forchlorfenuron (“CPPU”) to fertilizer that were used in the following examples.
To assess the ability of mixtures of the invention to promote and synchronize bud break these mixtures were applied to Concord grape vines and examined for bud break (initiation of growth) and subsequent shoot development. Specifically, dormant bare-rooted Concord grape vines were planted in pots containing Pro-Mix® BX potting soil (Pro-Mix is a registered trademark of and available from Premier Horticulture Ltd.) and pruned to five nodes on a single shoot of one-year-old wood. Nodes are regions on the shoot where leaves arise from the shoot and buds are present at the axis of the shoot:leaf interface. The bud found at the shoot:leaf interface develops into the vines new shoot growth. Aqueous solutions of forchlorfenuron, HC, 15-0-0 fertilizer, 17-0-0 fertilizer, and mixtures thereof were each applied individually or sequentially or co-applied to the first-year wood of separate Concord grape vines. Plants were grown in a heated greenhouse for 49 days and evaluated for percent of vines showing bud break, periodically between seven days after application and the conclusion of the experiment. Percent bud break is determined by the number of plants that have at least one bud broken divided by the total number of plants per treatment times 100. At 51 days after treatment (“DAT”), the plants were sacrificed and measured for total number of flower clusters, total new shoot length, longest new shoot, combined new shoot fresh weight. New shoot growth is the growth arising from the dormant buds not including the woody growth that was planted and gave rise to the new growth.
as §2

[4] = tested on: Flame seedless grape vines; experiment: Example 3: bud break on spurs of field-grown Flame seedless grape vines; details: 41 days post application
Procedure: as §2
as §4, with “field-grown Flame seedless grape vines” for “Prunus (stone fruit) plants”, “Thermal, Calif.,” for “the greenhouse”, “separate spurs” for “shoots”, “Flame seedless grape vines.” for “Prunus plants.”, “41” for “28”, “treatment. Results of these evaluations can be seen below in Tables 11 and 12.” for “treatment.”

Concord grape vines [5] = experiment: Example 2: Concord grape vines greenhouse, forchlorfenuron and 17-0-0 fertilizer (CAN17) study
Text: as §1, §2, §3

[6] = combined shoot fresh weight, 52 days after planting
[7] = days after treatment to 50% bud break

N#CN [1% HC (v/v), hydrogen cyanamide]
Fresh Weight at Harvest (Concord grape vines [1]; [6]): 42.21 grams | 50% BB (Concord grape vines [1]; [7]): 17 days | Average Number of Broken Nodes Per Plant at Harvest (Concord grape vines [1]; harvest 52 days after planting): 2.13 | Fresh Weight at Harvest, FW ([2]; combined new shoot fresh weight, harvest at 28 days): 4.76 grams | 50% BB [2, 7]: 7 days | Fresh Weight at Harvest (Malus (apple) rootstocks; combined new shoot growth, harvest at 28 days): 7.99 grams | 50% BB (Malus (apple) rootstocks; [7]): 12 days | Average Number of Broken Buds Per Malus Plant at Harvest (Malus (apple) rootstocks; harvest at 28 days): 8.13 | Fresh Weight per Bud at Harvest (Malus (apple) rootstocks; harvest at 28 days): 0.98 grams | Average Number of Broken Nodes Per Centimeter of Shoot at Harvest (Malus (apple) rootstocks; harvest at 28 days, rootstocks pruned to 25 centimeters): 0.325 | Percentage of Concord Grape Vines with Dormancy Relieved (Concord grape vines [3]; 31 days after treatment, plants with at least one bud showing a green shoot emerging): 100% | Percentage of Concord Grape Vines with Dormancy Relieved (Concord grape vines [3]; 34 days after treatment): 100% | Percentage of Concord Grape Vines with Dormancy Relieved (Concord grape vines [3]; 36 days after treatment): 100% | Percentage of Concord Grape Vines with Dormancy Relieved (Concord grape vines [3]; 38 days after treatment): 100% | Percentage of Concord Grape Vines with Dormancy Relieved (Concord grape vines [3]; 43 days after treatment): 100% | Percentage of Concord Grape Vines with Dormancy Relieved (Concord grape vines [3]; 45 days after treatment): 100% | Percentage of Concord Grape Vines with Dormancy Relieved (Concord grape vines [3]; 51 days after treatment): 100% | Broken Buds/Plant (Concord grape vines [3]; 51 days post-treatment): 2.50 | FW/Broken Bud (Concord grape vines [3]; 51 days post-treatment): 11.18 grams | FW/Plant (Concord grape vines [3]; combined shoot fresh weight at 51 DAT): 27.95 grams | 50% BB (Concord grape vines [3]; days from application to 50% of the plants showing at least one bud broken): 15 days | 0-50% BB (Concord grape vines [3]): 4 days | 0-50% BB (Concord grape vines [3]; listed as 1% HC): four | Broken Buds per Spur (OCE) [4]: 1.48 | Percentage of Spurs With At Least One Bud Broken (OCE) [4]: 72% | Fresh Weight at Harvest (Concord grape vines [5]; [6]): 37.01 grams | 50% BB (Concord grape vines [5]; [7]): 17 days | Average Number of Broken Nodes Per Plant at Harvest (Concord grape vines [5]; harvest 52 days after planting): 2.38
